Test results published in the NIST ThermoML archive (doi:10.1021/acs.jced.8b00680).
Values joined by “and” are separate entries in the source; they are usually repeats but may differ in a detail not shown here. Equal values may be shown once.

Conditions: Liquid, Ebulliometric method (Recirculating still)

CCCCCCO [hexan-1-ol]
Conditions | vapor or sublimation pressure [kPa]
402.36 K | 40
403.66 K | 40.02
407.89 K | 48.72
413.31 K | 58.84
418.35 K | 69.27
421.9 K | 77.4
425.15 K | 85.63
427.54 K | 92.07
429.19 K | 99.78

CCCCCCCCO [octan-1-ol]
Conditions | vapor or sublimation pressure [kPa]
436.67 K | 40
437.67 K | 40.08
443.61 K | 48.62
445.86 K | 52.15
450.45 K | 60.03
454.35 K | 67.6
457.08 K | 74.25
460.31 K | 81.52
463.5 K | 89.16
466.8 K | 97.64

CCCCCCCCCC [decane]
Conditions | vapor or sublimation pressure [kPa]
414.08 K | 40
414.18 K | 40
420.5 K | 48.74
425.83 K | 57.04
431.14 K | 66.32
435.6 K | 75.05
439.77 K | 83.97
443.51 K | 92.72
446.01 K | 98.88

CCCCCCCCCCCCCC [tetradecane]
Conditions | vapor or sublimation pressure [kPa]
489.17 K | 40
489.26 K | 40.04
491.29 K | 42.42
492.53 K | 43.8
495.18 K | 46.96
496.08 K | 48.13
497.96 K | 50.5
498.07 K | 50.7

CCCCCCCCCCC [undecane]
Conditions | vapor or sublimation pressure [kPa]
434.5 K | 40
434.6 K | 40.04
438.71 K | 45.18
442.2 K | 50.04
445.4 K | 54.82
448.68 K | 60.13
451.59 K | 65.09
454.55 K | 70.48
458.59 K | 78.59

CCO [ethanol]
Conditions | vapor or sublimation pressure [kPa]
351.44 K | 101.3

CCCCCCCCCCCC [dodecane]
Conditions | vapor or sublimation pressure
453.92 K | 40.08 kPa and 40 kPa
456.87 K | 43.58 kPa
459.31 K | 46.71 kPa
461.72 K | 49.93 kPa
465.47 K | 55.35 kPa
467.52 K | 58.41 kPa
470.69 K | 63.63 kPa
474.33 K | 69.97 kPa
478.47 K | 77.75 kPa

CCCCCO [pentan-1-ol]
Conditions | vapor or sublimation pressure [kPa]
384.45 K | 40
384.85 K | 40.01
392.76 K | 54.41
398.11 K | 66.15
400.95 K | 72.93
404.59 K | 82.75
407.17 K | 90.21
410.73 K | 101.2

CCCCCCCO [heptan-1-ol]
Conditions | vapor or sublimation pressure [kPa]
419.4 K | 40
420.4 K | 40.12
423 K | 44.2
426.27 K | 49.44
430.35 K | 56.78
433.75 K | 63.5
438.22 K | 73.4
441.44 K | 81.04
444.34 K | 88.14

CCCCCCCCCCO [decan-1-ol]
Conditions | vapor or sublimation pressure [kPa]
469.23 K | 40
469.83 K | 40.03
472.98 K | 44.4
475.4 K | 47.97
476.8 K | 50.19
479.42 K | 54.07
481.36 K | 57.04
484.05 K | 61.26
487.9 K | 67.43
491.16 K | 73.44
492.56 K | 76.32
494.46 K | 79.92
496.88 K | 85.24

CC(C)CC(C)(C)C [2,2,4-trimethylpentane]
Conditions | vapor or sublimation pressure [kPa]
372.26 K | 101.3

CCCCCCCCC [nonane]
Conditions | vapor or sublimation pressure [kPa]
392.17 K | 40
392.77 K | 39.96
399.76 K | 49.24
404.65 K | 58.04
409.14 K | 66.68
413.23 K | 75.48
417.05 K | 84.18
420.83 K | 93.72
423.88 K | 101.7
